Experimental data: patent publication US12441703B2, “Carboxamides as modulators of sodium channels” (VERTEX PHARMACEUTICALS INCORPORATED, priority 2019, dated 2025)

What follows are molecules tested against human NaV 1.8 (Homo sapiens, UniProt Q9Y5Y9) (assay: E-VIPR assay for detecting and measuring NaV inhibition properties). Conditions: E-VIPR assay conducted in the presence of human serum; HEK cells expressing truncated human NaV 1.8; read-out: IC50.
Type: cell-based
Procedure, shortened: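 HEK cells with truncated human NaV1.8 plus KIR2.1 BacMam, hexyl dye loaded 20 min, compound 30 min at room temperature, 11-point 3-fold series […], 0.625% DMSO, with or without human serum. E-VIPR biphasic stimulation at 10 Hz for 10 s; membrane-potential response read as normalized coumarin/oxonol ratio.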

human NaV 1.8, sequence (Q9Y5Y9 whole entry, looked up, the tested form may be a part): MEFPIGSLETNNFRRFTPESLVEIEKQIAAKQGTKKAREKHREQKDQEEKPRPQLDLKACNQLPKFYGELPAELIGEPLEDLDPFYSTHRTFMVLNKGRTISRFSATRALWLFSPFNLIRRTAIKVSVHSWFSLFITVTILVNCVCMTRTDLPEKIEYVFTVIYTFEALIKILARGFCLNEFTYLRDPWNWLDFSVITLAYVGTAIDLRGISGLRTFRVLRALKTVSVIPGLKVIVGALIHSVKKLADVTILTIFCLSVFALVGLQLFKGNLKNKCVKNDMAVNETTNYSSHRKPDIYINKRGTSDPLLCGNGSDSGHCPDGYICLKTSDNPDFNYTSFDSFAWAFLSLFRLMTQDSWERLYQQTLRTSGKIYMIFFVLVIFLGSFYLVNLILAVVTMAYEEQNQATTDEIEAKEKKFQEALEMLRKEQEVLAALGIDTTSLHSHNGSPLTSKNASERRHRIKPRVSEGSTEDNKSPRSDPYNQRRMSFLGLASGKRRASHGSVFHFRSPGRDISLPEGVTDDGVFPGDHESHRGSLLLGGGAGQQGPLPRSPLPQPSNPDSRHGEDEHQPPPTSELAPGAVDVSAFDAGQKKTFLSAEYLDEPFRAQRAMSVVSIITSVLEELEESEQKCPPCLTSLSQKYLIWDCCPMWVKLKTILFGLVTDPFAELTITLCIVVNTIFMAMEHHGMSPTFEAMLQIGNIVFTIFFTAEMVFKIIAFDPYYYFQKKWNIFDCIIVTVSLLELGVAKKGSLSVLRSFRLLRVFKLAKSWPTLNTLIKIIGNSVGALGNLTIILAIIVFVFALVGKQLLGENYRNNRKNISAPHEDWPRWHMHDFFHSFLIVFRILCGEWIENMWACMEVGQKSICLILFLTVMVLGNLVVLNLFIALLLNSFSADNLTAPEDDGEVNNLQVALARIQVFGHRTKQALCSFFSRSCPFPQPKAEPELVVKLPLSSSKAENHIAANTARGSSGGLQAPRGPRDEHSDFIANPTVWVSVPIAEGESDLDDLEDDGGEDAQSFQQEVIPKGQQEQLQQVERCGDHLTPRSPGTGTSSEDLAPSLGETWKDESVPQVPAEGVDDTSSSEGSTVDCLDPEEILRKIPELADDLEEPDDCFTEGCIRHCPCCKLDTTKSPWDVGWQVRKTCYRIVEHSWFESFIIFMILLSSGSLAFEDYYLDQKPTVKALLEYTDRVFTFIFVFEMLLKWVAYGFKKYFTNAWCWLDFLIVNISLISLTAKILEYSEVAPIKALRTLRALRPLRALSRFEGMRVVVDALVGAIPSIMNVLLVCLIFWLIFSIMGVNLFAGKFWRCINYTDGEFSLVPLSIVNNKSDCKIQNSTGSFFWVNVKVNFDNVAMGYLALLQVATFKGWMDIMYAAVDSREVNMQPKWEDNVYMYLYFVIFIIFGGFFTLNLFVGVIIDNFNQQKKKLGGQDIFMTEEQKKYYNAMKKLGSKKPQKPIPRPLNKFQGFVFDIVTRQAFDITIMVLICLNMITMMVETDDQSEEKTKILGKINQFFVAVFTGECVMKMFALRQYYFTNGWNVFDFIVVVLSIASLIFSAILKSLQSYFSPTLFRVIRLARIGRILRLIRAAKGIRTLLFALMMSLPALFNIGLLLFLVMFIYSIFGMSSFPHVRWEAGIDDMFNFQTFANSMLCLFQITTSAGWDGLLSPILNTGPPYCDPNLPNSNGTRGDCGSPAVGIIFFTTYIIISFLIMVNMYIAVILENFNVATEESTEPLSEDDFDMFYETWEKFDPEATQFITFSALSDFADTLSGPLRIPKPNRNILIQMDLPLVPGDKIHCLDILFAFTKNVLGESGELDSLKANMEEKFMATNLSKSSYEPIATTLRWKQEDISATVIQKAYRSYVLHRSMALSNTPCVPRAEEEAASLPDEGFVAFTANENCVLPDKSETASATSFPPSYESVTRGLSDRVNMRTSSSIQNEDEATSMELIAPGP

IC50 | SMILES
> 3000 nM | [2H]C([2H])([2H])Oc1cc(OC(F)(F)F)ccc1Oc1c(C)cc(C(F)(F)F)cc1C(=O)Nc1ccnc(C(N)=O)c1 [Compound 1039, 4-[[3-methyl-2-[2-(trideuteriomethoxy)-4-(trifluoromethoxy)phenoxy]-5-(trifluoromethyl)benzoyl]amino]pyridine-2-carboxamide]
6 nM | COc1c(Oc2cc3c(c(F)c2C(=O)Nc2ccnc(C(N)=O)c2)OCC(C)(C)O3)ccc(OC(F)(F)F)c1F [Compound 1040, 4-(5-fluoro-7-(3-fluoro-2-methoxy-4-(trifluoromethoxy)phenoxy)-2,2-dimethyl-2,3-dihydrobenzo[b][1,4]dioxine-6-carboxamido)picolinamide]
38 nM | COc1c(Oc2cc3c(c(F)c2C(=O)Nc2ccnc(C(N)=O)c2)OC(C)(C)CO3)ccc(OC(F)(F)F)c1F [Compound 1041, 4-(5-fluoro-7-(3-fluoro-2-methoxy-4-(trifluoromethoxy)phenoxy)-3,3-dimethyl-2,3-dihydrobenzo[b][1,4]dioxine-6-carboxamido)picolinamide]
